According to US20260224524A1, “A PHARMACEUTICAL COMPOSITION TARGETING MUTANT P53 AND HER2” (DR DOZO LABORATORIES, priority 2023, published 2026):
≈ marks a conversion by molar mass, not a printed value.

What was measured:
[1] = tested on: human tumour xenograft MDA-MB-231; test: Human tumour xenograft MDA-MB-231 model, tumour volume and relative tumour volume; format: in vivo, mice; set-up: Tumor Volume: unit not given here; details: Group B; for RTV (Relative Tumour Volume): 2.5 mg/kg i.v. day 1, 5, 9
Procedure: (§1) The therapeutic effect of SACC is evaluated against triple-negative breast cancer cell line MDA-MB-231 by analysing tumour volume and relative tumour volume. The study involved the use of six mice. These mice were administrated treatment according to the following Groups: […]

[2] = tested on: Human Pancreatic Cancer Cell Line Mia-Pa-Ca-2; test: Growth inhibition (% control growth, LC50, TGI, GI50) Mia-Pa-Ca-2; format: cell-based; details: for GI50: Homo sapiens
Procedure: The therapeutic effect of SA1 (peak 5) and SA2 (peak 4) is evaluated against human pancreatic cancer cell line Mia-Pa-Ca-2 by calculating the percentage growth inhibition, drug concentration of test compound needed to inhibit cell growth by 50% (GI50) values.
The therapeutic effect of SACC is evaluated against human […] cancer cell line Mia-Pa-Ca-2 by calculating the percentage growth inhibition, drug concentration of test compound needed to inhibit cell growth by 50% (GI50) values.

[3] = Human tumour xenograft MDA-MB-231 model, survival; format: in vivo; details: for % Survival: Group B, 2.5 mg/kg i.v. day 1, 5, 9
Procedure: as §1

[4] = Human tumour xenograft MDA-MB-231 model, animal body weight; format: in vivo, mice; details: for Animal Body Weight: Group B, 2.5 mg/kg i.v. day 1, 5, 9
Procedure: as §1

[5] = tested on: Human Breast Cancer Cell Line MDA-MB-231; test: Growth inhibition (% control growth, LC50, TGI, GI50) MDA-MB-231; format: cell-based

COc1cccc2c1C(=O)c1c(O)c3c(c(O)c1C2=O)C[C@@](O)(C(=O)CO)C[C@@H]3O[C@H]1C[C@H](N)[C@H](O)[C@H](C)O1 [ADR, Adriamycin]
RTV (Relative Tumour Volume) ([1]; day 9): 0.95 | RTV (Relative Tumour Volume) ([1]; day 15): 1.63 | RTV (Relative Tumour Volume) ([1]; day 18): 1.93 | RTV (Relative Tumour Volume) ([1]; day 21): 2.29 | RTV (Relative Tumour Volume) ([1]; day 25): 4.22 | RTV (Relative Tumour Volume) ([1]; day 30): 7.30 | tumour volume (in words) ([1]; ADR 2.5 mg/Kg): decreased tumour volume | Tumor Volume ([1]; ADR 2.5 mg/Kg, day 1, Mouse 1): 0.06 | Tumor Volume ([1]; ADR 2.5 mg/Kg, day 1, Mouse 2): 0.05 | Tumor Volume ([1]; ADR 2.5 mg/Kg, day 1, Mouse 3): 0.06 | Tumor Volume ([1]; ADR 2.5 mg/Kg, day 1, Mouse 4): 0.05 | Tumor Volume ([1]; ADR 2.5 mg/Kg, day 1, Mouse 5): 0.06 | Tumor Volume ([1]; ADR 2.5 mg/Kg, day 1, Mouse 6): 0.06 | Tumor Volume ([1]; ADR 2.5 mg/Kg, day 5, Mouse 1): 0.05 | Tumor Volume ([1]; ADR 2.5 mg/Kg, day 5, Mouse 2): 0.07 | Tumor Volume ([1]; ADR 2.5 mg/Kg, day 5, Mouse 3): 0.06 | Tumor Volume ([1]; ADR 2.5 mg/Kg, day 5, Mouse 4): 0.06 | Tumor Volume ([1]; ADR 2.5 mg/Kg, day 5, Mouse 5): 0.05 | Tumor Volume ([1]; ADR 2.5 mg/Kg, day 5, Mouse 6): 0.06 | Tumor Volume ([1]; ADR 2.5 mg/Kg, day 9, Mouse 1): 0.05 | Tumor Volume ([1]; ADR 2.5 mg/Kg, day 9, Mouse 2): 0.08 | Tumor Volume ([1]; ADR 2.5 mg/Kg, day 9, Mouse 3): 0.04 | Tumor Volume ([1]; ADR 2.5 mg/Kg, day 9, Mouse 4): 0.04 | Tumor Volume ([1]; ADR 2.5 mg/Kg, day 9, Mouse 5): 0.06 | Tumor Volume ([1]; ADR 2.5 mg/Kg, day 9, Mouse 6): 0.05 | Tumor Volume ([1]; ADR 2.5 mg/Kg, day 12, Mouse 1): 0.06 | Tumor Volume ([1]; ADR 2.5 mg/Kg, day 12, Mouse 2): 0.10 | Tumor Volume ([1]; ADR 2.5 mg/Kg, day 12, Mouse 3): 0.05 | Tumor Volume ([1]; ADR 2.5 mg/Kg, day 12, Mouse 4): 0.05 | Tumor Volume ([1]; ADR 2.5 mg/Kg, day 12, Mouse 5): 0.06 | Tumor Volume ([1]; ADR 2.5 mg/Kg, day 12, Mouse 6): 0.07 | Tumor Volume ([1]; ADR 2.5 mg/Kg, day 15, Mouse 1): 0.07 | Tumor Volume ([1]; ADR 2.5 mg/Kg, day 15, Mouse 2): 0.16 | Tumor Volume ([1]; ADR 2.5 mg/Kg, day 15, Mouse 3): 0.07 | Tumor Volume ([1]; ADR 2.5 mg/Kg, day 15, Mouse 4): 0.06 | Tumor Volume ([1]; ADR 2.5 mg/Kg, day 15, Mouse 5): 0.08 | Tumor Volume ([1]; ADR 2.5 mg/Kg, day 15, Mouse 6): 0.11 | Tumor Volume ([1]; ADR 2.5 mg/Kg, day 18, Mouse 1): 0.07 | Tumor Volume ([1]; ADR 2.5 mg/Kg, day 18, Mouse 2): 0.21 | Tumor Volume ([1]; ADR 2.5 mg/Kg, day 18, Mouse 3): 0.07 | Tumor Volume ([1]; ADR 2.5 mg/Kg, day 18, Mouse 4): 0.07 | Tumor Volume ([1]; ADR 2.5 mg/Kg, day 18, Mouse 5): 0.07 | Tumor Volume ([1]; ADR 2.5 mg/Kg, day 18, Mouse 6): 0.16 | Tumor Volume ([1]; ADR 2.5 mg/Kg, day 21, Mouse 1): 0.05 | Tumor Volume ([1]; ADR 2.5 mg/Kg, day 21, Mouse 2): 0.23 | Tumor Volume ([1]; ADR 2.5 mg/Kg, day 21, Mouse 3): 0.08 | Tumor Volume ([1]; ADR 2.5 mg/Kg, day 21, Mouse 4): 0.11 | Tumor Volume ([1]; ADR 2.5 mg/Kg, day 21, Mouse 5): 0.13 | Tumor Volume ([1]; ADR 2.5 mg/Kg, day 21, Mouse 6): 0.17 | Tumor Volume ([1]; ADR 2.5 mg/Kg, day 25, Mouse 1): 0.08 | Tumor Volume ([1]; ADR 2.5 mg/Kg, day 25, Mouse 2): 0.31 | Tumor Volume ([1]; ADR 2.5 mg/Kg, day 25, Mouse 3): 0.33 | Tumor Volume ([1]; ADR 2.5 mg/Kg, day 25, Mouse 4): 0.24 | Tumor Volume ([1]; ADR 2.5 mg/Kg, day 25, Mouse 5): 0.17 | Tumor Volume ([1]; ADR 2.5 mg/Kg, day 25, Mouse 6): 0.29 | Tumor Volume ([1]; ADR 2.5 mg/Kg, day 30, Mouse 2): 0.53 | Tumor Volume ([1]; ADR 2.5 mg/Kg, day 30, Mouse 3): 0.55 | Tumor Volume ([1]; ADR 2.5 mg/Kg, day 30, Mouse 4): 0.29 | Tumor Volume ([1]; ADR 2.5 mg/Kg, day 30, Mouse 5): 0.28 | Tumor Volume ([1]; ADR 2.5 mg/Kg, day 30, Mouse 6): 0.40 | GI50 ([2]; MIA PaCa-2, Mia-Pa-Ca-2, calculated from graph): < 10 µg/mL | GI50 ([2]; MIA PaCa-2, Mia-Pa-Ca-2, Molar drug concentrations calculated from graph): 4.75 µg/mL (≈ 8.74 µM) | % Control Growth ([2]; Mia-Pa-Ca-2, 10 μg/ml, Average Values): −89.7% | % Control Growth ([2]; Mia-Pa-Ca-2, 10 μg/ml, Experiment 1): −88.7% | % Control Growth ([2]; Mia-Pa-Ca-2, 10 μg/ml, Experiment 2): −89.2% | % Control Growth ([2]; Mia-Pa-Ca-2, 10 μg/ml, Experiment 3): −91.2% | % Control Growth ([2]; Mia-Pa-Ca-2, 20 μg/ml, Average Values): −91.1% | % Control Growth ([2]; Mia-Pa-Ca-2, 20 μg/ml, Experiment 1): −91.3% | % Control Growth ([2]; Mia-Pa-Ca-2, 20 μg/ml, Experiment 2): −90.4% | % Control Growth ([2]; Mia-Pa-Ca-2, 20 μg/ml, Experiment 3): −91.5% | % Control Growth ([2]; Mia-Pa-Ca-2, 40 μg/ml, Average Values): −91.5% | % Control Growth ([2]; Mia-Pa-Ca-2, 40 μg/ml, Experiment 1): −91.4% | % Control Growth ([2]; Mia-Pa-Ca-2, 40 μg/ml, Experiment 2): −92.3% | % Control Growth ([2]; Mia-Pa-Ca-2, 40 μg/ml, Experiment 3): −91.0% | % Control Growth ([2]; Mia-Pa-Ca-2, 80 μg/ml, Average Values): −84.7% | % Control Growth ([2]; Mia-Pa-Ca-2, 80 μg/ml, Experiment 1): −84.1% | % Control Growth ([2]; Mia-Pa-Ca-2, 80 μg/ml, Experiment 2): −87.5% | % Control Growth ([2]; Mia-Pa-Ca-2, 80 μg/ml, Experiment 3): −82.3% | % Control Growth ([2]; Mia-Pa-Ca-2, 10^−4M, Average Values): −89.6% | % Control Growth ([2]; Mia-Pa-Ca-2, 10^−4M, Experiment 1): −88.2% | % Control Growth ([2]; Mia-Pa-Ca-2, 10^−4M, Experiment 2): −89.7% | % Control Growth ([2]; Mia-Pa-Ca-2, 10^−4M, Experiment 3): −91.0% | % Control Growth ([2]; Mia-Pa-Ca-2, 10^−5M, Average Values): −87.8% | % Control Growth ([2]; Mia-Pa-Ca-2, 10^−5M, Experiment 1): −88.7% | % Control Growth ([2]; Mia-Pa-Ca-2, 10^−5M, Experiment 2): −87.4% | % Control Growth ([2]; Mia-Pa-Ca-2, 10^−5M, Experiment 3): −87.3% | % Control Growth ([2]; Mia-Pa-Ca-2, 10^−6M, Average Values): −75.8% | % Control Growth ([2]; Mia-Pa-Ca-2, 10^−6M, Experiment 1): −77.3% | % Control Growth ([2]; Mia-Pa-Ca-2, 10^−6M, Experiment 2): −75.7% | % Control Growth ([2]; Mia-Pa-Ca-2, 10^−6M, Experiment 3): −74.5% | % Control Growth ([2]; Mia-Pa-Ca-2, 10^−7M, Average Values): −60.2% | % Control Growth ([2]; Mia-Pa-Ca-2, 10^−7M, Experiment 1): −3.2% | % Control Growth ([2]; Mia-Pa-Ca-2, 10^−7M, Experiment 2): −88.2% | % Control Growth ([2]; Mia-Pa-Ca-2, 10^−7M, Experiment 3): −89.3% | TGI ([2]; Mia-Pa-Ca-2, Molar drug concentrations calculated from graph): 4.69 µg/mL (≈ 8.63 µM) | TGI ([2]; Mia-Pa-Ca-2, calculated from graph): <10 µg/mL | % Survival ([3]; day 1): 100% | % Survival ([3]; day 5): 100% | % Survival ([3]; day 9): 100% | % Survival ([3]; day 12): 100% | % Survival ([3]; day 15): 100% | % Survival ([3]; day 18): 100% | % Survival ([3]; day 21): 100% | % Survival ([3]; day 25): 100% | % Survival ([3]; day 30): 83% | survival rate ([3]; till 25 days): 100% | Animal Body Weight ([4]; day 1): 20.9 Grams | Animal Body Weight ([4]; day 5): 19.9 Grams | Animal Body Weight ([4]; day 9): 20.3 Grams | Animal Body Weight ([4]; day 12): 20.1 Grams | Animal Body Weight ([4]; day 15): 19.5 Grams | Animal Body Weight ([4]; day 18): 20.4 Grams | Animal Body Weight ([4]; day 21): 20.0 Grams | Animal Body Weight ([4]; day 25): 20.2 Grams | Animal Body Weight ([4]; day 30): 21.6 Grams | change in body weight (in words) ([4]; average body weight over 30 days): minimal change in body weight | % Control Growth ([5]; 10 μg/ml, Experiment 2): −89.3% | % Control Growth ([5]; 20 μg/ml, Experiment 1): −85.1% | % Control Growth ([5]; 40 μg/ml, Experiment 1): −80.9% | % Control Growth ([5]; 80 μg/ml, Experiment 3): −71.2%
